From US7229762B2, “Proteomic screening for redox state dependent protein—protein interactions” (Duke University Medical Center, priority 2003, dated 2007)
Blank lines part the entries; values can stand above or below the compound they belong to.

Columns and labels:
[1] = test system: caspase-3 interactions with ASM, IRG, PGM, iNOS
Protocol: For this purpose, protein-protein interactions were determined in a yeast two-hybrid system by the method described in Uetz, P., et al., Nature 403, 623–627 (2000) and Ito, T., et al., PNAS, 97, 1143–1147 (2000). The baits were all known proteins involved in apoptotic cascades. The preys were a library of macrophage genes (mRNA) expressed in response to cytokines that induce apoptosis. Mating pairs or transfectants were exposed to continuous nitric oxide presence at levels and flux rates mimicking those which are generated in macrophages, over 18 hours (the time course, over which apoptosis occurs in these cells). Room air was used in the determinations to mimic the cell condition at first and subsequently low pO2 (about 5 mm Hg) was used to improve specificity and increase yield. New partners and/or inhibition of partners that were otherwise present, were sought.

[2] = test system: Yeast (Δyhb1); assay type: cell-based, Saccharomyces cerevisiae; conditions: growth monitored by absorbance at 600 nm
Protocol: The YHB1 gene was deleted from yeast strain CG-1945 and the absence of NO consumption activity was verified (Liu et al., 2000). Yeast two-hybrid screening was then performed in the CG-1945-Ayhbl host. […]
Yeast (Δyhb1) were transformed with Gal4 BD-caspase-3 plasmid (bait) and a cDNA library (Gal4 AD prey plasmids) derived from activated (NO generating) macrophages. […] DETA-NO at less than 300 μM generates NO without inhibiting yeast growth (monitored by absorbance at 600 nm). Steady state NO concentrations are maintained at ˜100 nM–1 μM range for several days as measured with an NO electrode (not shown).
(§1) To assess the possibility of NO-dependent regulation of protein-protein interactions in a cellular context, a modified yeast two-hybrid screening methodology was developed. […] It was also necessary to establish a concentration range of DETA-NO over which physiological amounts of NO could be generated in these assays without impairing yeast growth (FIG. 1A) (100 μM DETA-NO produces steady state concentrations of ˜300 nM NO in yeast culture medium, as determined using an NO electrode)

[3] = assay type: physicochemical
Protocol: (§2) Yeast (Δyhb1) were transformed with Gal4 BD-caspase-3 plasmid (bait) and a cDNA library (Gal4 AD prey plasmids) derived from activated (NO generating) macrophages. Screening was performed as described in the methods below. DETA-NO at less than 300 μM generates NO without inhibiting yeast growth (monitored by absorbance at 600 nm). Steady state NO concentrations are maintained at ˜100 nM–1 μM range for several days as measured with an NO electrode (not shown).
as §1, with “developed. The first step was to delete the yeast flavohemoglobin gene (Liu et al., 2000), which consumes NO very efficiently and thus obfuscates NO signaling.” for “developed.”
Purified caspase-3 was incubated in the presence or absence 20 μM DETA-NO for 60 min (30 nM steady state NO), followed by incubation with ASM at 37° C. for 2 hrs, and IP with caspase-3 antibody. […] S-nitrosylation of caspase-3 by NO was separately verified by photolysis-chemiluminesence (Mannick et al., 1999). The interaction of caspase-3 with ASM was measured as ASM activity in caspase-3 IP's (pH 5.0). Little or no ASM activity was present in IP's with caspase-3 antibody of either caspase-3 or ASM in isolation.
To determine the relevant target(s) of NO, ASM/caspase-3 co-precipitations were carried out following NO treatment of each partner alone. Using an ASM activity assay, the amounts of ASM that could be precipitated with a procaspase-3 antibody was assessed from co-incubates (2 hours at 37° C.) of ASM (20 pmol) and caspase-3 in limiting amounts (2.5 pmol). […]

[4] = target: T1, caspase-3 interaction with iNOS / ASM (Homo sapiens, UniProt P42574); experiment: Modified yeast two-hybrid, NO-dependent growth of iNOS/caspase-3 and ASM/caspase-3 clones; assay type: cell-based; conditions: 72 hrs, triple-deficient medium
T1 construct: expressed in transfected cells; host or cells: Saccharomyces cerevisiae CG-1945 Δyhb1
T1 sequence (P42574 1-277): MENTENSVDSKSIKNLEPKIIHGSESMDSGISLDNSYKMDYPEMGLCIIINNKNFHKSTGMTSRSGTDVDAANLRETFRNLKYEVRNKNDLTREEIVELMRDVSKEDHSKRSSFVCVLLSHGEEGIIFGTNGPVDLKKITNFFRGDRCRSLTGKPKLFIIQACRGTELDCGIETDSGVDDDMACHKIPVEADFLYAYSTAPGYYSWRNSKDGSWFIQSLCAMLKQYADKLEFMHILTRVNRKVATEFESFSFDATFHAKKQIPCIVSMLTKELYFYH
Protocol: as §2
Auxotrophic selection was carried out on agar plates (15 cm in diameter) enriched in 50 mM phosphate buffer (pH 7.2; His-Trp-Leu (triple)-deficient buffered medium (TDBM)). […] Prey plasmids were isolated from positive yeast clones and then re-introduced into the bait strain to confirm bait-prey interactions. Method 2: After cells were seeded on 1.5% agar they were covered with 3% low melting point agar, which in turn was layered with culture medium. NO donors (e.g. DETA-NO; 300 μM final concentration) were added to the liquid layer every 24 hours. Colonies are grown for 4 days as described in ref 9. Method 3:
Auxotrophic selection was carried out in TDBM. Transformation with the cDNA library was followed by overnight growth in medium deficient in tryptophan and leucine. Transformants were then grown for 3 days in His-deficient medium supplemented with DETA-NO (typically 200 μM final concentration). […]

[5] = target: T2, caspase-3/ASM interaction in HEK-293 cells (Homo sapiens, UniProt P42574); experiment: Caspase-3 immunoprecipitation, ASM blot, HEK-293 cells exposed to DETA-NO; assay type: cell-based; conditions: 200 μM DETA-NO
T2 construct: endogenous in cells; host or cells: HEK-293
T2 sequence (P42574 29-277): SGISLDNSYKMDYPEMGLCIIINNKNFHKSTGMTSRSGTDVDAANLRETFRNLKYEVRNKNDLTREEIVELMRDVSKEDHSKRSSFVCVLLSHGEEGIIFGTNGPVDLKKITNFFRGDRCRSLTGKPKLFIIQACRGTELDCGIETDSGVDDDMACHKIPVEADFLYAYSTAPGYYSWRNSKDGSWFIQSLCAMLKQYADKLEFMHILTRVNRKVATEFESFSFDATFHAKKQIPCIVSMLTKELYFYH
T2 sequence (P17405 47-631 partner): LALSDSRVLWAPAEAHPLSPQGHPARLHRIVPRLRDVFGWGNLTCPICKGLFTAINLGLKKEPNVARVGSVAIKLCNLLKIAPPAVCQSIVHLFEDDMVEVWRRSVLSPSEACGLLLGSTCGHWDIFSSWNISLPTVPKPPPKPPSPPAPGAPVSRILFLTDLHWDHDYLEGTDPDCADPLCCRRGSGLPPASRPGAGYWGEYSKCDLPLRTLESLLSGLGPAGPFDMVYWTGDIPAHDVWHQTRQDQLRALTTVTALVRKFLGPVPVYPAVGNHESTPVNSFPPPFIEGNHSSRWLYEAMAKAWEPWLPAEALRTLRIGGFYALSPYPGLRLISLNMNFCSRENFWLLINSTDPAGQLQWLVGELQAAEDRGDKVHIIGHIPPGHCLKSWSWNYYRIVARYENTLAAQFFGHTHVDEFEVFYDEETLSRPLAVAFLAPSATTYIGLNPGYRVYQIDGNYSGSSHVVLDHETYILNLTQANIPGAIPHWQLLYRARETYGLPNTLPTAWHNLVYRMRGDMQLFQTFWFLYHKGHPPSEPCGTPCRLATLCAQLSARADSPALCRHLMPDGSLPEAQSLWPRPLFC
Protocol: (§3) Thirty million cells were lysed by gentle homogenization in 1 ml IP buffer (10 mM NaPi, 100 mM NaCl, 1 mM EDTA, pH 7.9, with protease inhibitor cocktail). The supernatant obtained by centrifugation at 20,000 g for 10 min was used for immunoprecipitation. Caspase-3 immunoprecipitates (2.5 μg anti-caspase-3 monoclonal antibody, Transduction Laboratories) were washed, separated on 10% SDS-PAGE, and blotted with ASM antisera (Santa Cruz Biotechnology); 5% of the sample was blotted for caspase-3.
Bulotta et al., 2001; De Nadal et al., 2000). […] To define further the NO requirement for this interaction, caspase-3 was immunoprecipitated from wild-type HEK cells and from HEK cells stably transfected with nNOS (Bredt et al., 1992), in the presence and absence of the NOS inhibitor L-NMMA. Little or no ASM was pulled down in precipitates from wild-type HEK cells, whereas ASM was readily detected in the precipitates from nNOS-expressing cells (FIG. 2). Moreover, ASM/caspase-3 interactions were observed not only between the 57 kD mature form of ASM, but also with the ASM proform (75 kD) and a smaller processed form (47 kD), which may be alternatively regulated (Ferlinz et al., 1994; Hurwitz et al., 1994).

[6] = target: T3, eNOS/caspase-3 interaction in eNOS-expressing HEK cells (Bos taurus, UniProt P29473); experiment: Caspase-3 IP from eNOS-expressing HEK cells, amounts of eNOS; assay type: cell-based, Human; conditions: L-NMMA 3 mM with L-arginine 1 mM/Ca2+ 200 μM
T3 construct: expressed in transfected cells; host or cells: HEK-293 expressing eNOS
Protocol: HEK cell lysates from wild type (WT), nNOS- and eNOS-expressing cells were immunoprecipitated with caspase-3 monoclonal antibodies and blotted (IB) for nNOS, eNOS, and caspase-3, respectively. eNOS, nNOS and caspase-3 in whole cell lysates (Lysate) and in IPs from those lysates (7–20% SDS-PAGE) are shown. Data are representative of 5 similar experiments. eNOS and nNOS were not detectable in control IPs (not shown).
eNOS-expressing HEK cells were treated with L-arginine (1 mM)/Ca^2+ (200 μM) (to activate NOS) in the presence or absence of L-NMMA (3 mM) (to inhibit NOS activation). Amounts of eNOS were quantified from scanned Western blots (7–20% SDS-PAGE) and normalized with respect to amounts of caspase in the IP (bar graph), (n=3).
To probe further the physiological relevance of NO-dependent protein-protein interactions of NOS, the effects of NOS activity on binding of caspase-3 were assessed. […] Thus, NOS reversibly regulates its own binding to capase-3 through NO production.

[7] = test system: ASM/caspase-3 interaction in nNOS-expressing HEK cells; experiment: Caspase-3 IP from nNOS-expressing HEK cells, ASM isoforms; assay type: cell-based, Human; conditions: L-NMMA 3 mM
Protocol: as §3
Amounts of ASM isoforms (47, 57, 75 kDa) in caspase-3 immunoprecipitates (IP) from wild type (WT) vs. nNOS-expressing HEK cells were normalized with respect to the amounts of caspase-3 in the IPs (FIG. 2, bar graphs); IPs were performed in the presence and absence of the NOS inhibitor, LNMMA (3 mM). nNOS vs. WT (single asterisk, P<0.01) and nNOS vs. nNOS+LNMMA (double asterisk, p<0.05). A and B, n=7–14; C, n=3–5.
Bulotta et al., 2001; De Nadal et al., 2000). […] To define further the NO requirement for this interaction, caspase-3 was immunoprecipitated from wild-type HEK cells and from HEK cells stably transfected with nNOS (Bredt et al., 1992), in the presence and absence of the NOS inhibitor L-NMMA. Little or no ASM was pulled down in precipitates from wild-type HEK cells, whereas ASM was readily detected in the precipitates from nNOS-expressing cells (FIG. 2). […]

interaction dependent on hydrogen peroxide in the 4 clones ([1]; added repeatedly or generated continuously with glucose oxidase): none was found
SMILES: OO [hydrogen peroxide]
effect of presence of hydrogen peroxide on determined interactions [1]: did not produce or modify the majority of determined interactions

SMILES: NCCN(CCN)/[N+]([O-])=N/O [DETA-NO, diethylenetriamine-NO]
DETA-NO concentration that generates NO without inhibiting yeast growth [2]: less than 300 μM
half-life [3]: ~18 h
steady state / maximum NO concentration ([3]; 20 μM DETA-NO, 60 min): 30 nM
steady state concentration of NO ([3]; 100 μM DETA-NO, yeast culture medium, NO electrode): ~300 nM
concentration that optimally induced in yeast the interactions of caspase-3 with ASM and iNOS [4]: 200 µM
co-precipitation of ASM with caspase-3 [5]: immunoprecipitation of caspase-3 brought down the 57 kD active form of ASM

effect on eNOS interaction with caspase-3 after NOS activation [6]: almost completely reversed this effect
SMILES: CNC(=N)NCCC[C@H](N)C(=O)O [L-NMMA]
effect on interaction between ASM isoforms and caspase-3 [7]: significantly reduced the interaction
